In brackets after ≈: the same amount, converted by molar mass. Entries after “also recorded” stand apart in the source; their conditions may differ. Like-named read-outs stand apart in the source and are kept apart here.
Key:
[1] = Stability of cladribine with/without HPCD at pH 1.4 and 8.2 at room temperature; assay type: physicochemical
Procedure: The effect of the HPCD on the stability of cladribine at pH 1.4 and 8.2 at room temperature was measured.

[2] = Solubility of cladribine in water at various HPCD concentrations (HPLC); assay type: physicochemical; settings: no HPCD, temperature not stated, read-out: normal solubility of cladribine in water
[3] = as above; assay type: physicochemical; settings: for solubility at 120 h: pH 7.3
Procedure: The cylodextrin and the buffer salts were solved in Water for Injection and an excess of Cladribine was added. The solution was shaken during 5 days at room temperature and 4° C. The solution was filtered through a 0.2 μm filter.
The solubility of cladribine in water at various concentrations of 2-Hydroxypropyl-β-Cyclodextrin (HPCD) was measured by high performance liquid chromatography. […] Table 2 sets forth the results of the solubility measurements for the HPCD/cladribine formulation of Example 1.

[4] = in words, cited from earlier work

For `Nc1nc(Cl)nc2c1ncn2[C@H]1C[C@H](O)[C@@H](CO)O1` [Cladribine, 2-chloro-2'-deoxyadenosine], the “stability against hydrolysis when combined with cyclodextrins” value ([1]; combined with cyclodextrins, in words) was “significantly more stable”, the “stability at lower pH when combined with cyclodextrins like HPCD” value ([1]; lower pH, with cyclodextrins like HPCD) was “significantly more stable” and the “stability at pH 1.4” value ([1]; pH 1.4, room temperature, with HPCD versus cladribine solution without HPCD (FIG. 1)) was “significantly enhanced”. The solubility [2] was ~4520 µg/mL (≈ 15.8 mM), the solubility at 120 h ([3]; 10% hp-β-cd in buffered water, pH 7.3, 4° C., 10% HP-β-CD (W/W), read-out: Solubility of Cladribine at 4° C.) was 4.93 mg/mL (≈ 17.3 mM) and the solubility at 120 h ([3]; 10% hp-β-cd in buffered water, pH 7.3, RT, 10% HP-β-CD (W/W), read-out: Solubility of Cladribine (mg/ml) at RT) was 6.4 mg/mL (≈ 22.4 mM). It also gave a solubility at 120 h ([3]; 15% hp-β-cd in buffered water, pH 7.3, 4° C., 15% HP-β-CD (W/W), read-out: Solubility of Cladribine at 4° C.) of 6.51 mg/mL (≈ 22.8 mM), a solubility at 120 h ([3]; 15% hp-β-cd in buffered water, pH 7.3, RT, 15% HP-β-CD (W/W), read-out: Solubility of Cladribine (mg/ml) at RT) of 8.47 mg/mL (≈ 29.6 mM) and a solubility at 120 h ([3]; 20% hp-β-cd in buffered water, pH 7.3, 4° C., 20% HP-β-CD (W/W), read-out: Solubility of Cladribine at 4° C.) of 8.27 mg/mL (≈ 28.9 mM). The solubility at 120 h ([3]; 20% hp-β-cd in buffered water, pH 7.3, RT, 20% HP-β-CD (W/W), read-out: Solubility of Cladribine (mg/ml) at RT) was 10.5 mg/mL (≈ 36.7 mM), the solubility at 120 h ([3]; 25% hp-β-cd in buffered water, pH 7.3, 4° C., 25% HP-β-CD (W/W), read-out: Solubility of Cladribine at 4° C.) was 9.91 mg/mL (≈ 34.7 mM) and the solubility at 120 h ([3]; 25% hp-β-cd in buffered water, pH 7.3, RT, 25% HP-β-CD (W/W), read-out: Solubility of Cladribine (mg/ml) at RT) was 12.4 mg/mL (≈ 43.3 mM). For the same compound, the “solubility of cladribine in water through use of the cyclodextrin formulation” value ([3]; with cyclodextrin, in words) was “significantly enhanced; also recorded: greatly increased”, the stability in acid ([4]; acidic environment of the gastro-intestinal system) was “acid labile” and the “stability in simple saline solutions” value ([4]; simple saline) was “limited stability”. For the same compound, the solubility in water ([4]; water) was “slightly soluble”.

— patent US6194395A, “Cyclodextrin cladribine formulations” (Orthro-McNeil Pharmaceutical, Inc., priority 1999, dated 2001)
